According to patent US8921424B2, “Histone deacetylase inhibitors, process for preparation and uses thereof” (Zhejiang Hisun Pharmaceutical Co. Ltd., priority 2007, dated 2014):

Columns and labels:
BXPC-3 = assay: Cell-based proliferation assay (SRB), BXPC-3; conditions: Homo sapiens
MDAMB231 = assay: Cell-based proliferation assay (SRB), MDAMB231; conditions: Homo sapiens, MDA-MB-231; Table 4
Procedure: Cell-Based Proliferation Assay for Determination of GI50 Values
A rapid multiwell plate assay using Sulforhodamine B (SRB) protein stain was adopted to evaluate the growth inhibitory effects of the compounds of the present invention. The screening panel of cancer cell lines includes Colo205 and HCT116 colon cancer cells, MDA-MB231 and MDA-MB435 chest cancer cells, A549 lung cancer cells, and Chinese hamster ovary cell line CHO, which were obtained from ATCC.
The cell line Colo205 is grown in RPMI 1640 medium containing 2 mM L-glutamine, 5% fetal bovine serum, and 1.0 mM sodium pyruvic acid. Cell lines A549 and MDA-MB231 are grown in RPMI 1640 medium containing 2 mM L-glutamine and 5% fetal bovine serum. The cell line MDA-MB435 is grown in DMEM medium containing 2 mM L-glutamine and 5% fetal bovine serum. The cell lines HCT 116 is grown in IMEM medium containing 2 mM L-glutamine and 5% fetal bovine serum. The CHO cell line, used as a normal control on toxicity, is grown in a special medium for cell line. For a typical screening experiment, A549 and Colo205 cells are inoculated into 96-well microtiter plates, with 100 μL per well, and 2000 and 5000 cells per well respectively for either cell line. MDA-MB435, HCT116, MDA-MB231 and CHO cells are also inoculated into 96-well microtiter plates, with 6000 cells per well. After cell inoculation, the microtiter plates are incubated at 37° C., 5% CO2, and 100% relative humidity for 24 hr in order to make cells adhere to well wall.
After 24 h incubation or time zero for drug addition, with each cell line 50 μl of cold 50% (w/v) TCA is added to wells used for control to fix cells in situ. Also at time zero, cells in other wells are treated with 100 μl of compound of different concentrations for 24 hr, 48 hr, and 72 hr respectively, with varying final compound concentration (0.1 μM, 1 μM, 5 μM 10 μM). For each treatment duration at each compound concentration, there are triplicate wells, as well as an array of control wells including a blank control well (cell culture medium only, no cells), a no-compound control well (adding same volume of cell culture medium but no compound), a positive control well (treated with Suberoylanilide hydroxamic acid (SAHA)), and normal cell well control (CHO cells). Following the addition of compounds, cell plates are incubated for 24 h, 48 h or 72 h per treatment group at 37° C., 5% CO2, and 100% relative humidity. The Treatment is then terminated by addition of cold TCA and incubation of 1 hr at 4° C. The supernatant is discarded, and all wells are washed five times with de-ioned water and air dried. Then each well is added with 100 μl sulforhodamine B (SRB) solution (0.4% (w/v) made in 1% acetic acid) and cell plates are incubated for 20-30 minutes at room temperature. After staining, unbound dye is removed by washing five times with 1% acetic acid and the plates are air dried. Bound stain is subsequently solubilized with 10 mM (200 μL) Tris base with the help of 5 min platform vibration or pipetting up and down, and the absorbance is read on an automated plate reader (M5 detection system, MD Group Ltd.) at a wavelength of 565 nm (calibrated zero reading of blank control at wavelength of 690 nm). The analytical software, XL-fit has been used to generate GI50 from a series of data thus obtained.

COLO-205 = assay: Xenograft model, COLO-205; format: in vivo, mouse; conditions: i.p., 12 days
Description: In Vivo Anti-Neoplastic (or Anti-Tumour) Effect of HDAC Inhibiting Agents
The efficacy of the selected compounds of the invention can then be determined using in vivo animal (mouse) xenograft studies. The animal xenograft model is one of the most commonly used in vivo cancer models for studying the pharmaceutically effective dosage, administration route, frequency and interval.
Athymic nude mice (Female, 5-6 week old, BALB/c, nu/nu, approximately 18-20 g body weight) are obtained from Vital River. The animals are kept on a 12 h light/dark cycle (0700-1900); food and water are provided ad libitum. All in vivo experiments are carried out in a specific pathogen-free facility (22° C.). The human cancer […] transplant model in athymic nude mice is constructed using xenograft cell lines colon cancer cell line colo205, breast cancer cell line MDA-MB435, and lung cancer cell line A549, all obtained from ATCC. Cultured cells are removed from culture plate wall by digestion, collected and suspended in cell culture medium containing no FBS, at a concentration of 5×10^6/0.2 ml, and brought to animal facility on ice. is 0.2 ml cell suspension is given to mice via rear left auxilliary subcutaneous scapular injection, using Size 6 needle. Animals are measured every 2-3 days on the size of tumor formation. After two weeks, those tumors that have been well grown without leak are removed from animals under sterile condition, split into several small fractions (2-3 mm in diameter), and injected s.c. into the rear left auxilliary subcutaneous scapular of animals. […] While the animas being treated, body weight of the animal and size of the tumor are measured every 3 days, with mortality also recorded. […] Tumors are removed, weighed, and measured. […] Tumor-inhibition rate, mortality, as well as relative tumor proliferationrate T/C (%) are calculated. […]
Significant differences in tumor growth rate were determined by analysis of variance (Table 5).

Row | SMILES | GI50 (BXPC-3; BXPC-3, Table 3) | GI50 (MDAMB231) | T/C(%) COLO-205 (COLO-205; 200 mg/kg) | T/C(%) COLO-205 (COLO-205; 80 mg/kg) | GI50 (BXPC-3; BXPC-3, Table 4) | T/C(%) COLO-205 (COLO-205; 30 mg/kg)
1 | CCCCCNc1cc(/C=C/C(=O)NO)ccc1SCCN(CC)CC [Example 2, 3-(4-(2-(diethylamino)ethylthio)-3-(pentylamino)phenyl)-N-hydroxy-acrylamide] | 6.89 µM | 3.5 µM | 42% (200,12) | – | – | –
2 | O=C(CCCCCCC(=O)Nc1ccccc1)NO [SAHA, suberoylanilide hydroxamic acid, reference compound] | 5.68 µM | 5.1 µM | – | >60% (80,12) | – | –
3 | CCCCc1nc2cc(/C=C/C(=O)NO)ccc2n1CCN(CC)CC [SB939, reference compound] | 6.78 µM | 2.35 µM | – | – | 6.78 µM | 55% (30,12)
